The text below walks through data of ChEMBL document CHEMBL3217722, “Synthesis of hybrid 4-anilinoquinoline triazines as potent antimalarial agents, their in silico modeling and bioevaluation as Plasmodium falciparumtransketolase and -hematin inhibitors” (Medchemcomm, 2012).

By IC50 is commonly meant the concentration at which inhibition is half-maximal. Broadly, the inhibition in vivo is the relative decrease from the control value, in per cent.

Series [1] concerns Plasmodium falciparum. The experiment in a line: Antiplasmodial activity against chloroquine-sensitive Plasmodium falciparum 3D7 after 72 hrs by SYBR Green-1 dye-based fluorescence assay. The series is classed as functional, organism-based. The settings on record: 3D7, 72 h.
Series [2] can be described thus: Selectivity index, ratio of IC50 for African green monkey Vero cells to IC50 for Plasmodium falciparum. The series is classed as toxicity, cell-based. To be noted: read-out: Ratio IC50.
The test system of series [3] is Plasmodium yoelii. The experiment in a line: Inhibition of beta-hematin formation in Plasmodium yoelii infected Swiss mouse plasma after 16 hrs. It is filed as functional.
In series [4] the test system is Plasmodium yoelii. The experiment in a line: Antimalarial activity against chloroquine-resistant Plasmodium yoelii N-67 infected in Swiss mouse assessed as inhibition of parasitemia at 100 mg/kg, po qd for 4 days relative to control. The series is classed as functional. To be noted: N-67, 96 h.
Series [5] concerns Plasmodium yoelii. The experiment in a line: Antimalarial activity against chloroquine-resistant Plasmodium yoelii N-67 infected in Swiss mouse assessed as mouse survival at 100 mg/kg, po qd for 4 days measured on day 28. The series is classed as functional, organism-based. Further details: dose 100 mg/kg.
Series [6] deals with Plasmodium falciparum. The experiment in a line: Antiplasmodial activity against chloroquine-resistant Plasmodium falciparum K1 after 72 hrs by SYBR Green-1 dye-based fluorescence assay. The series is classed as functional, organism-based. To be noted: K1, 72 h.
A short description of series [7]: Inhibition of Plasmodium falciparum transketolase using fructose-6-phosphate as substrate by spectrophotometric analysis.
The test system of series [8] is Plasmodium yoelii. The experiment in a line: Antimalarial activity against chloroquine-resistant Plasmodium yoelii N-67 infected in Swiss mouse assessed as inhibition of parasitemia at 50 mg/kg, po qd for 4 days relative to control. The settings on record: N-67, 96 h. The series is classed as functional.
Series [9] concerns Plasmodium yoelii. The experiment in a line: Antimalarial activity against chloroquine-resistant Plasmodium yoelii N-67 infected in Swiss mouse assessed as mouse survival at 50 mg/kg, po qd for 4 days measured on day 28. The series is classed as functional, organism-based. The arrangement: dose 50 mg/kg.

Values after ≈ are worked out from the molar mass of the structure shown. Active and inactive are the calls of the source. The calls are words filed in the database; no cut-off is given here.

Turning to `CCN1CCN(c2nc(Nc3ccc(Nc4ccnc5cc(Cl)ccc45)cc3)nc(Nc3cccc(OC)c3)n2)CC1`, the figures for the IC50 in the series with Plasmodium falciparum [1] and with Plasmodium yoelii [3] were 0.0089 µg/mL (≈ 0.0153 µM) and 2.25 µg/mL (≈ 3.87 µM), respectively. Also, in series [2], the selectivity ratio came out at 73.
`Fc1ccc(Nc2nc(NCCN3CCOCC3)nc(Nc3ccc(Nc4ccnc5cc(Cl)ccc45)cc3)n2)cc1`: the inhibition in vivo at 100 mg/kg in the series on Plasmodium yoelii [4] was determined as 100%. The outcome with Plasmodium yoelii [5] was inactive. In addition, the IC50 was determined as 0.0954 µg/mL (≈ 0.163 µM) in the series with Plasmodium falciparum [6], 0.00981 µg/mL (≈ 0.0167 µM) in the series on Plasmodium falciparum [1] and 2.38 µg/mL (≈ 4.06 µM) with Plasmodium yoelii [3]. Besides, in [2], the selectivity ratio stood at 1330.
Consider `Fc1cccc(Nc2nc(NCCN3CCOCC3)nc(Nc3ccc(Nc4ccnc5cc(Cl)ccc45)cc3)n2)c1`, for which the IC50 stood at 0.0781 µg/mL (≈ 0.133 µM) in the series with Plasmodium falciparum [6], 0.04 µg/mL (≈ 0.0683 µM) in the series on Plasmodium falciparum [1] and 2.7 µg/mL (≈ 4.61 µM) in the series on Plasmodium yoelii [3]. Also, the selectivity ratio in [2] was 122.
`CN1CCN(c2nc(Nc3ccc(Nc4ccnc5cc(Cl)ccc45)cc3)nc(Nc3cccc(Cl)c3)n2)CC1`: the IC50 turned out to be 80.2 µM in series [7], 0.0169 µg/mL (≈ 0.0295 µM) in the series on Plasmodium falciparum [6], 0.00241 µg/mL (≈ 0.00421 µM) with Plasmodium falciparum [1] and 2.42 µg/mL (≈ 4.23 µM) in the series with Plasmodium yoelii [3]. The selectivity ratio in series [2] was 361.
Regarding `Clc1ccc2c(Nc3ccc(Nc4nc(NCCCN5CCOCC5)nc(N5CCOCC5)n4)cc3)ccnc2c1`, the inhibition in vivo at 50 mg/kg in the series on Plasmodium yoelii [8] was 98.4%. For the same compound, in the series with Plasmodium yoelii [4], the inhibition in vivo at 100 mg/kg is 100%. For the same compound, the IC50 in the series with Plasmodium falciparum [6] turned out to be 0.00266 µg/mL (≈ 0.00462 µM); in the series with Plasmodium falciparum [1] it was 0.00276 µg/mL (≈ 0.00479 µM); in the series on Plasmodium yoelii [3], 2.98 µg/mL (≈ 5.17 µM). Besides, the selectivity ratio in series [2] came out at 3320. For the same compound, in the series on Plasmodium yoelii [9], the result was inactive.
Take `CN1CCN(c2nc(Nc3ccc(Cl)cc3)nc(Nc3ccc(Nc4ccnc5cc(Cl)ccc45)cc3)n2)CC1`: in the series on Plasmodium yoelii [4], the inhibition in vivo at 100 mg/kg was 100%. Moreover, the outcome in the series on Plasmodium yoelii [5] was inactive. Besides, the IC50 with Plasmodium falciparum [6] came to 0.0352 µg/mL (≈ 0.0614 µM); in the series with Plasmodium falciparum [1], 0.0078 µg/mL (≈ 0.0136 µM); in the series on Plasmodium yoelii [3], 2.17 µg/mL (≈ 3.79 µM). Further, the selectivity ratio in series [2] turned out to be 66.7.
In the case of `CCN1CCN(c2nc(Nc3ccc(Nc4ccnc5cc(Cl)ccc45)cc3)nc(N3CCc4ccccc4C3)n2)CC1`, the figures for the IC50 with Plasmodium falciparum [6], in the series on Plasmodium falciparum [1] and with Plasmodium yoelii [3] were 0.116 µg/mL (≈ 0.196 µM), 0.0121 µg/mL (≈ 0.0205 µM) and 2.25 µg/mL (≈ 3.8 µM), respectively. The selectivity ratio in series [2] came out at 75.9.
Taken in the same sequence, the figures for `CCN1CCN(c2nc(Nc3ccc(F)cc3)nc(Nc3ccc(Nc4ccnc5cc(Cl)ccc45)cc3)n2)CC1` were 0.0198 µg/mL (≈ 0.0347 µM), 0.0111 µg/mL (≈ 0.0195 µM), 2.64 µg/mL (≈ 4.63 µM) and 88.2.
As for `COc1cccc(Nc2nc(Nc3ccc(Nc4ccnc5cc(Cl)ccc45)cc3)nc(N3CCN(C)CC3)n2)c1`, the IC50 in the series with Plasmodium falciparum [1] came out at 0.00426 µg/mL (≈ 0.0075 µM); in the series on Plasmodium yoelii [3], 2.05 µg/mL (≈ 3.61 µM). In addition, the selectivity ratio in series [2] was 117.
In the case of `Fc1cccc(Nc2nc(NCCCN3CCOCC3)nc(Nc3ccc(Nc4ccnc5cc(Cl)ccc45)cc3)n2)c1`, the IC50 was 76.7 µM in series [7], 0.00571 µg/mL (≈ 0.00952 µM) in the series on Plasmodium falciparum [6], 0.00136 µg/mL (≈ 0.00227 µM) in the series on Plasmodium falciparum [1] and 2.06 µg/mL (≈ 3.43 µM) with Plasmodium yoelii [3]. Moreover, in the series on Plasmodium yoelii [4], the inhibition in vivo at 100 mg/kg amounted to 100%. In addition, the result in the series on Plasmodium yoelii [5] was inactive. In addition, in series [2], the selectivity ratio is 551.
As to `CCN1CCN(c2nc(Nc3ccc(Nc4ccnc5cc(Cl)ccc45)cc3)nc(Nc3cccc(F)c3)n2)CC1`, the IC50 in [7] is 75 µM; in the series with Plasmodium falciparum [1], 0.00247 µg/mL (≈ 0.00433 µM); with Plasmodium yoelii [3], 2.06 µg/mL (≈ 3.61 µM). The selectivity ratio in series [2] is 149.
Consider `Clc1ccc2c(Nc3ccc(Nc4nc(NCCCN5CCOCC5)nc(N5CCCc6ccccc65)n4)cc3)ccnc2c1`, for which the IC50 is above 0.5 µg/mL in the series on Plasmodium falciparum [6], 0.0147 µg/mL (≈ 0.0236 µM) in the series on Plasmodium falciparum [1] and 2.4 µg/mL (≈ 3.86 µM) in the series with Plasmodium yoelii [3]. In addition, the selectivity ratio in [2] was 440.
Take `CCN1CCN(c2nc(Nc3ccc(Nc4ccnc5cc(Cl)ccc45)cc3)nc(Nc3cccc(Cl)c3)n2)CC1`: the IC50 came out at 74.5 µM in series [7], 0.00496 µg/mL (≈ 0.00846 µM) in the series on Plasmodium falciparum [6], 0.00211 µg/mL (≈ 0.0036 µM) in the series with Plasmodium falciparum [1] and 2.06 µg/mL (≈ 3.51 µM) with Plasmodium yoelii [3]. In addition, in series [2], the selectivity ratio was 318.
On to `CCN1CCN(c2nc(Nc3ccc(Cl)cc3)nc(Nc3ccc(Nc4ccnc5cc(Cl)ccc45)cc3)n2)CC1`, for which the figures for the IC50 in the series on Plasmodium falciparum [6], with Plasmodium falciparum [1] and in the series on Plasmodium yoelii [3] were 0.00981 µg/mL (≈ 0.0167 µM), 0.00414 µg/mL (≈ 0.00706 µM) and 2.05 µg/mL (≈ 3.5 µM), respectively. In series [2], the selectivity ratio turned out to be 67.6.
Regarding `CCN1CCN(c2nc(Nc3ccc(Nc4ccnc5cc(Cl)ccc45)cc3)nc(Nc3ccc(OC)cc3)n2)CC1`, the IC50 with Plasmodium falciparum [6] was determined as 0.00308 µg/mL (≈ 0.00529 µM); in the series with Plasmodium falciparum [1] it was 0.00426 µg/mL (≈ 0.00732 µM); with Plasmodium yoelii [3], 2.08 µg/mL (≈ 3.57 µM). In addition, the selectivity ratio in [2] is 75.1.
Consider `CCN1CCN(c2nc(Nc3ccc(Nc4ccnc5cc(Cl)ccc45)cc3)nc(Nc3ccc(OC)c(OC)c3)n2)CC1`, for which the IC50 in series [7] is 85.5 µM; with Plasmodium falciparum [6] it was 0.0023 µg/mL (≈ 0.00376 µM); with Plasmodium falciparum [1] it was 0.00258 µg/mL (≈ 0.00421 µM); in the series with Plasmodium yoelii [3] it was 2.45 µg/mL (≈ 4 µM). Also, the selectivity ratio in [2] was determined as 624.
In the case of `COc1cccc(Nc2nc(NCCCN3CCOCC3)nc(Nc3ccc(Nc4ccnc5cc(Cl)ccc45)cc3)n2)c1`, the IC50 in the series with Plasmodium falciparum [1] was 0.00298 µg/mL (≈ 0.00487 µM); with Plasmodium yoelii [3], 3.49 µg/mL (≈ 5.7 µM). The selectivity ratio in series [2] stood at 2500.
As for `COc1ccc(Nc2nc(NCCCN3CCOCC3)nc(Nc3ccc(Nc4ccnc5cc(Cl)ccc45)cc3)n2)cc1`, the IC50 worked out at 72.7 µM in series [7], 0.155 µg/mL (≈ 0.253 µM) with Plasmodium falciparum [6], 0.00381 µg/mL (≈ 0.00622 µM) with Plasmodium falciparum [1] and 2.34 µg/mL (≈ 3.82 µM) in the series on Plasmodium yoelii [3]. The selectivity ratio in series [2] came out at 1310.
